Series [1] has as its system PC12 cells. The series can be described thus: Uptake of uridine into PC12 cells. Type of series: cell-based.
Another series relates to IP signaling. The series can be described thus: PI turnover / inositol phosphate formation in NGF-differentiated PC12 cells. The format is cell-based. As to conditions: for Formation of IP: NGF-differentiated PC12 cells, 1 hour, UTP 100 μM (p<0.05), uridine 50 μM (p<0.01). As for the experimental part: Analysis of PI turnover was performed as described by (Nitsch R M et al, J Neurochem 69: 704-12, 1997). Briefly, cells were labeled metabolically for 36 h with 1.25 microCurie (μCi)/dish of myo-[2-^3H]inositol (17.0 Curie/mmol; Amersham Biosciences) in serum-free MEM, washed twice with Hank's balanced salt solution (HBSS), and treated for 15 min with 10 mM lithium chloride in HBSS. Drugs were added in the presence of 10 mM lithium for 60 min at 37° C. Cells were lysed with ice-cold methanol, and lipids were removed by extraction with chloroform/methanol/water (2:2:1 by volume). Labeled water-soluble inositol phosphates were separated from free [^3H]inositol by ion-exchange chromatography, using AG 1-X8 columns (Bio-Rad), and 1M ammonium formate and 0.1M formic acid as eluent. Radioactivity was quantified by liquid scintillation spectrometry.

The test system of a further series is NF-M. As to the kind of experiment: NF-M levels in PC12 cells (Western blotting). The format is cell-based. As for the experimental part:
(§1) PC12 cells were maintained in Minimal Essential Medium (MEM; Invitrogen, Carlsbad, Calif.) supplemented with 10% fetal bovine serum (FBS) at 37° C. Experimental incubations were for 2 or 4 days in medium containing 50 ng/ml mouse 2.5 S (2.5 subunit) NGF and 1% FBS, with or without test compounds. NGF and FBS were obtained from Invitrogen.
(§2) Equal amounts of protein (40 μg protein/lane) were loaded for sodium dodecyl sulfate-polyacrylamide gel electrophoresis (4-15% SDS PAGE; Bio-Rad, Hercules, Calif.). Prior to gel electrophoresis, bromphenol blue solution (0.07%) was added to each sample. Proteins were separated, transferred onto polyvinylidene difluoride (PVDF) membranes (Immobilon-P, Millipore), and blocked with 5% bovine serum albumin (Tris-buffered saline/0.15% Tween 20) for 1 h. After 3 10 min rinses in Tris-buffered saline (TBST), blots were incubated in TBST with various antibodies against the proteins of interest, including NF-70, NF-M (1: 2000, 1: 5000, respectively; Calbiochem, La Jolla, Calif.) at 4° C. overnight on an orbital shaker. […] Films were digitized using a Supervista S-12 scanner with a transparency adapter (UMAX Technologies, Freemont, Calif.). Analysis was performed using the public domain NIH Image program (NIH V.1.61).
On the technique in general: In western blotting, separated proteins are transferred to a membrane and probed.

In another series the test system is NF-70. As to the kind of experiment: NF-70 levels in PC12 cells (Western blotting). Type of series: cell-based. As for the experimental part: as §1, §2
Series [2] has as its system PC12 cells. The series can be described thus: Intracellular CDP-choline levels in PC12 cells. Type of series: cell-based. The settings on record: after 50 minutes. The protocol:
(§3) Brain tissue or cells was dissolved in methanol/chloroform (1:2 vol/vol), centrifuged, and the aqueous phase was dried under vacuum, resuspended in 100-200 μL water and separated by HPLC on an ion-exchange column (Alltech Hypersil APS-2, 5 μM, 250×4.6 mm). CDP-choline was eluted with a linear gradient of NaH2PO4 buffers A (1.75 mM NaH2PO4, pH 2.9) and B (500 mM, pH 4.5), which allowed resolution of CDP-choline from closely co-eluting substances such as UMP over 40 min. The retention time for CDP-choline was 9.5 min. Individual nucleotide peaks were detected by UV absorption at […], and were identified by comparison with the positions of authentic standards, as well as by the addition of nucleotide standards to selected samples.
as §1

In series [3] the test system is PC12 cells. The series can be described thus: NGF-induced neurite outgrowth, branching and length in PC12 cells. The format is cell-based. As for the experimental part:
as §1
PC12 cells were sparsely plated on collagen-coated 60 mm culture dishes in MEM containing 1% fetal bovine serum. […] All treatments were performed 24 h after plating. At the end of the treatment period, images were obtained with a phase-contrast Zeiss Axioplan 2 microscope, using OpenLab software. Six digital images were captured for each dish, for a total of 18 to 24 images per treatment group Approximately 300 cells were quantified for each treatment group for each experiment. Experiments were performed in triplicate. Quantification of neurites, including neurite branching and neurite length, was performed by one more researchers blinded to experimental groups Neurite length was measured using the public domain NIH software “Image J.” Processes longer than the diameter of the cell body were counted as neurites. Only process-bearing cells were analyzed.

The subject of series [4] is P2Y2, P2Y4 and P2Y6 receptors. The series can be described thus: P2Y receptor expression in NGF-differentiated PC12 cells. The format is cell-based. As to conditions: compared with cells exposed to NGF alone. The protocol:
Western blots utilized rabbit anti-P2Y2, anti-P2Y4 (both from Calbiochem); or rabbit anti-P2Y6 (Novus Biologicals, Littleton, Colo.).
PC 12 cells were treated as described above, except they were grown on 12 mm glass cover slips (A Daigger & Co., Vernon Hills, Ill.) coated with collagen. Proteins were visualized using immunofluorescence. Briefly, the cells were fixed with 4% paraformaldehyde, permeabilized with 0.25% Triton X-100, blocked in 10% normal goat serum, and incubated overnight in the appropriate antibodies (mouse anti-NF-70, and either rabbit anti-P2Y2, rabbit anti-P2Y4 or rabbit anti-P2Y6). For P2Y2 and P2Y4 visualization, control cultures were incubated with primary antibody plus a control antigen in order to ensure that the immuno-staining would be specific. Control antigen was not available for the P2Y6 receptor. Cells were then incubated in fluorochrome-conjugated secondary antibodies for 1 hour (goat anti-rabbit ALEXA 488 and goat anti-mouse ALEXA 568; Molecular Probes, Eugene, Oreg.) and mounted on glass slides with mounting media with or without DAPI (Vector Laboratories, Burlingame, Calif.). Control antigens provided with the primary antibodies were used to ensure that immuno-staining was specific. Digital images were obtained on a Zeiss (Oberkochen, Germany) Axioplan microscope with OpenLab software, using a Zeiss Plan-Neofluor 40× oil-immersion objective.

The nature of series [5]: Conversion of uridine to cytidine in plasma and brain of gerbils. Type of series: in vivo. The settings on record: 250 mg/kg uridine orally, 60 min.
Series [6] relates to PC12 cells. The series can be described thus: Intracellular UTP and CTP levels in PC12 cells by HPLC. Type of series: cell-based. The settings on record: 2 days with NGF; uridine 50 μM, UTP 100 μM, cytidine 50 μM. The protocol: as §3
Levels of intracellular UTP and CTP were analyzed by HPLC as described for Example 5, except that 5 mM NaH2PO4, pH 2.65 was used as buffer A.

SMILES strings stand for the structures.

As for `Cc1nc(N=Nc2ccc(S(=O)(=O)O)cc2S(=O)(=O)O)c(COP(=O)(O)O)c(C=O)c1O` [PPADS, pyridoxal-phosphate-6-azophenyl-2′,4′ disulfonic acid, reference compound], the “Inhibition of uptake of uridine into PC12 cells” value (shortened to “Inhibition”) in the series with PC12 cells [1] is on record as “None of the P2Y receptor antagonists inhibited the uptake of uridine”. Further, the “Block of stimulation of IP signaling by UTP” value in the series with IP signaling (PPADS 100 μM) is “significantly (p<0.05) blocked”.

Consider `Cc1ccc(C(=O)Nc2ccc(S(=O)(=O)O)c3cc(S(=O)(=O)O)cc(S(=O)(=O)O)c23)cc1NC(=O)c1cccc(NC(=O)Nc2cccc(C(=O)Nc3cc(C(=O)Nc4ccc(S(=O)(=O)O)c5cc(S(=O)(=O)O)cc(S(=O)(=O)O)c45)ccc3C)c2)c1` [suramin], for which the “Inhibition” value with PC12 cells [1] is recorded as “None of the P2Y receptor antagonists inhibited the uptake of uridine”.

Regarding `Nc1c(S(=O)(=O)O)cc(Nc2ccc(Nc3nc(Cl)nc(Nc4cccc(S(=O)(=O)O)c4)n3)c(S(=O)(=O)O)c2)c2c1C(=O)c1ccccc1C2=O` [RB-2, reactive blue 2], the “Inhibition” value in the series on PC12 cells [1] is listed as “None of the P2Y receptor antagonists inhibited the uptake of uridine”.

As to `O=c1ccn([C@@H]2O[C@H](CO)[C@@H](O)[C@H]2O)c(=O)[nH]1` [uridine], the NF-M expression entry with NF-M (NGF plus 50 μM, 4 days, vs NGF only, p<0.001) is “increased”. Also, the NF-M level entry in the series with NF-M (absence of NGF) is reported as “had no effect”. The NF-70 expression result with NF-70 (NGF plus 50 μM, 4 days, vs NGF only, p<0.01) is reported as “increased”. Moreover, the NF-70 level entry in the series on NF-70 (absence of NGF) is “had no effect”. The “Intracellular CDP-choline levels” value in the series with PC12 cells [2] was “statistically significant increase”. In addition, the Average neurite length result in the series with PC12 cells [3] (NGF-differentiated cells) is listed as “did not significantly affect”. For the same compound, in the series on PC12 cells [3] (absence of NGF, 50 μM, 2 or 4 days), the Production of neurites entry is “did not result in the production of neurites”. Also, the “Number of neurite branch points per cell” value with PC12 cells [3] (with NGF, 50 μM, 4 days) is on record as “significantly (p<0.01) increased”. Further, the “Number of neurites per cell” value in the series with PC12 cells [3] (with NGF, 2-day treatment or lower concentrations (10, 25 μM)) is given as “had no effect”. Moreover, the “Expression of P2Y2, P2Y4 and P2Y6 receptors” value in series [4] is on record as “did not affect the expression”. Further, the “Formation of IP” value in the series on IP signaling is reported as “significantly increased”. In addition, the “Conversion to cytidine in brain versus plasma” value in series [5] is on record as “more efficiently converted to cytidine than in plasma”. In addition, in the series on PC12 cells [6], the “Intracellular CTP levels” value is “significantly (p<0.05) increased” and the “Intracellular UTP levels” value is recorded as “significantly (p<0.05) increased”.

Regarding `O=c1ccn([C@@H]2O[C@H](COP(=O)(O)OP(=O)(O)OP(=O)(O)O)[C@@H](O)[C@H]2O)c(=O)[nH]1` [UTP, uridine-5′-triphosphate], in the series on PC12 cells [3] (with NGF, 10 and 50 μM, 4 days, vs NGF only), the Neurite outgrowth entry is on record as “significantly (p<0.01) enhanced”. Moreover, the “Formation of IP” value in the series on IP signaling was “significantly increased”. Further, in the series with PC12 cells [6], the “Intracellular CTP levels” value was “did not significantly affect” and the “Intracellular UTP levels” value is reported as “did not significantly affect”.

For `Nc1ccn([C@@H]2O[C@H](CO)[C@@H](O)[C@H]2O)c(=O)n1` [cytidine, reference compound], in the series on PC12 cells [3] (NGF-exposed cells, cytidine), the Neurite outgrowth result was “had no effect on neurite outgrowth”. In addition, in the series with PC12 cells [6], the “Intracellular CTP levels” value is “did not significantly affect” and the “Intracellular UTP levels” value is listed as “did not significantly affect”.

The values above are taken from patent US8518882B2, “Methods and compositions for ameliorating or inhibiting decline in memory or intelligence or improving same” (priority 1998, dated 2013).
